From patent publication US20260053861A1, “CELL COMPOSITIONS AND METHODS OF USING THE SAME” (THE REGENTS OF THE UNIVERSITY OF CALIFORNIA, priority 2022, published 2026)
Structures can show the parent of a compound that is named as a salt. Where two headings read alike, the source gives them in different places.

Key:
[1] = system: SOX10+ cells in 2D or 3D NC cultures; assay: Maintenance of SOX10 expression in cultured NC precursors with signaling modulators; format: cell-based, human; conditions: CHIR99021 exposure together with FGF2, 3D aggregates
From the text: Initial hPSC-based NC differentiation protocols relied on the delamination of putative NC cells from neuroepithelial lineages combined with the prospective isolation of p75+ and/or HNK1+ NC precursors (Bajpai et al., 2010; Lee et al., 2007). While those protocols yield various NC-derived lineages, the levels of SOX10 expression are generally low. In contrast, more directed NC induction protocols based on timed exposure to activators of WNT signaling show robust induction of SOX10 in the majority of cells by day 11 of differentiation (Barber et al., 2019; […] et al., 2016; Menendez et al., 2011; Mica et al., 2013; Tchieu et al., 2017). Upon further culture, those hPSC-derived NC cells can be directed into SOX10+ melanocytes (Mica et al., 2013) but also give rise to SOX10-mesenchymal and neuronal precursors ([…] et al., 2016; Lee et al., 2007; Mica et al., 2013; Tchieu et al., 2017). Since SOX10 is a key marker in the SC lineage (Finzsch et al., 2010), we first screened for conditions that maintained its expression in cultured NC precursors. We determined the percentage of SOX10+ cells in 2D or 3D NC cultures in the presence of modulators of EGF, FGF, WNT, Notch, TGFβ, BMP and endothelin 3 signaling.

[2] = system: NF-kB p65; assay: NF-kB p65 staining, nuclear localization in SCs exposed to high glucose; format: cell-based, human
[3] = system: hPSC-SCs; assay: Untargeted primary metabolomics of glucose and BP treated SCs; format: cell-based, human
[4] = system: hPSC-SCs; assay: Metabolite measurements by biochemical/colorimetric assays (sorbitol, fructose, lactate, glucose, pyruvate); format: cell-based, human
[5] = system: hPSC-SCs
[6] = system: patients suffering from neuropathic pain; conditions: cited from earlier work
[7] = Blood glucose levels in STZ-treated mice; conditions: BP in chow
[8] = HTS viability of hPSC-SCs in the presence of 30 mM glucose, Prestwick library, Table S4

Row | Molecule | z.score.t [5, 8] | also measured
1 | FGF2 |  | SOX10 expression in cultured NC precursors [1]: maintenance of SOX10 expression in 3D aggregates
2 | CC(NC(C)(C)C)C(=O)c1cccc(Cl)c1 (stereo not drawn) [BP, Bupropion] |  | NF-kB p65 localization to the nucleus in SCs exposed to high glucose [2]: counteracted by BP treatment; cellular lactate level ([3]; SCs): reduced after BP treatment; levels of TCA cycle metabolites succinate, fumarate, citrate, α-ketoglutarate and malate ([3]; SCs): increase in the detected levels; cellular pyruvate increased by high glucose ([3]; high glucose): lowered by BP treatment; concentration of citrate reduced by high glucose ([3]; high glucose): reversed by BP treatment; urea concentration and transporter SLC14A2 mRNA level ([3]; high glucose): decreased in the presence of BP; cellular level of fructose increased by high glucose [4]: countered this effect; intracellular glucose and sucrose levels ([4]; SCs, high glucose): decrease in intracellular glucose and sucrose levels; sorbitol accumulation in SCs ([4]; high glucose): reduced sorbitol accumulation in SCs in a dose-dependent manner; normalized (transformed) viability z-score, number of viable cells ([5]; 30 mM glucose, compounds at 1 μM, 72 hours, DAPI negative RFP positive cells): top hit compound; highest non-toxic dose ([5]; human): 0.7 µM; rescue of viability of high glucose treated SC cultures, dose response ([5]; various concentrations, high glucose): dose-dependent effect on rescuing the viability; benefit in patients with neuropathic pain [6]: some benefit; blood glucose levels [7]: does not affect glucose levels
3 | Cc1c[nH]c(-c2cnc(NCCNc3ccc(C#N)cn3)nc2-c2ccc(Cl)cc2Cl)n1 [CHIR99021, reference compound] |  | SOX10 expression in cultured NC precursors [1]: maintenance of SOX10 expression in 3D aggregates
4 | Nc1ncnc2c1ncn2[C@@H]1O[C@H](COP(=O)(O)O)[C@@H](O)[C@H]1O.O [Adenosine 5′-monophosphate monohydrate] |  | z.score.t [5]: 1.049
5 | COc1ccc(C(=O)c2ccccc2)c(O)c1 [Oxybenzone] | −0.6594 | 
6 | CC(=O)Oc1cc(C(C)C)c(OCCN(C)C)cc1C.Cl [Moxisylyte hydrochoride] | 0.8757 | 
7 | CCOC(=O)Oc1c(OC)cc(C(=O)O[C@@H]2C[C@@H]3CN4CCc5c([nH]c6cc(OC)ccc56)[C@H]4C[C@@H]3[C@H](C(=O)OC)[C@H]2OC)cc1OC [Syrosingopine] | −0.4543 | 
8 | Nc1ccc(S(=O)(=O)NC(=O)c2ccccc2)cc1 [Sulfabenzamide] | −0.9042 | 
9 | COc1ccc(C[C@H](N)C(=O)N[C@H]2[C@@H](O)[C@H](n3cnc4c(N(C)C)ncnc43)O[C@@H]2CO)cc1 [Puromycin dihydrochloride] | −2.056 | 
10 | NC(=O)N/N=C/c1ccc([N+](=O)[O-])o1 [Nitrofural] | 0.767 | 
11 | CN(C)CCC=C1c2ccccc2COc2ccccc21 [Doxepin hydrochloride] | 0.1594 | 
12 | Trimeprazine tartrate | −0.411 | 
13 | COc1cc2cc3c4cc(OC)c(OC)cc4cc[n+]3c(C)c2cc1OC.O.[Cl-] [Coralyne chloride hydrate] |  | z.score.t [5]: −1.014
14 | Nc1nc2c(ncn2COCCO)c(=O)[nH]1 [Acyclovir] | 0.2916 | 
15 | CC(C)(CO)[C@@H](O)C(=O)NCCC(=O)O [Pantothenic acid calcium salt monohydrate] | −0.9817 | 
16 | C[C@]12CC[C@H]3[C@@H](CC[C@]4(O)C[C@@H](O)CC[C@]34C=O)[C@@]1(O)CC[C@@H]2C1=CC(=O)OC1 [Strophanthidin] |  | z.score.t [5]: −2.4
17 | Retrorsine |  | z.score.t [5]: −0.3526
18 | CC[N+](CC)(CC(=O)Nc1c(C)cccc1C)Cc1ccccc1 [Denatonium benzoate] | −1.472 | 
19 | CCN(CC)CCOc1ccc(C(=C(Cl)c2ccccc2)c2ccccc2)cc1.O=C(O)CC(O)(CC(=O)O)C(=O)O [Clomiphene citrate (Z,E)] | −1.755 | 

Row | Molecule | z.score.t [5, 8] | also measured
20 | CC[N+](CC)(CC)CCOc1cccc(OCC[N+](CC)(CC)CC)c1OCC[N+](CC)(CC)CC [Gallamine triethiodide] | −0.1538 | 
21 | CC(=O)OCC1=C(C(=O)O)N2C(=O)[C@@H](N)[C@H]2SC1 [Cephalosporanic acid, 7-amino] |  | z.score.t [5]: −0.7049
22 | CC(=O)[C@H]1CC[C@H]2[C@@H]3C[C@H](C)C4=CC(=O)CC[C@]4(C)[C@H]3[C@@H](O)C[C@]12C [Medrysone] | 0.1244 | 
23 | CC(C)NCC(O)COc1ccc(CCOCC2CC2)cc1 (stereo not drawn) [Betaxolol hydrochloride] | −0.5337 | 
24 | CN1CCC[C@@H]1CCO[C@](C)(c1ccccc1)c1ccc(Cl)cc1 [Clemastine fumarate] | −1.892 | 
25 | CN(C)[C@@H]1C(O)=C(C(=O)NCN2CCCC2)C(=O)[C@@]2(O)C(O)=C3C(=O)c4c(O)cccc4[C@@](C)(O)[C@H]3C[C@@H]12 [Rolitetracycline] | 1.601 | 
26 | NCCc1c[nH]c2ccc(O)cc12 [Serotonin hydrochloride] |  | z.score.t [5]: −1.195
27 | CCCCNc1c(C(=O)OCC)c(C)nc2c1cnn2CC [Tracazolate hydrochloride] | −0.9487 | 
28 | CC(=O)OCC(=O)[C@@]1(O)[C@H](C)C[C@H]2[C@@H]3CCC4=CC(=O)C=C[C@]4(C)[C@@]3(F)[C@@H](O)C[C@@]21C [Dexamethasone acetate] | 0.4486 | 
29 | NS(=O)(=O)c1cc2c(cc1Cl)NC(C(Cl)Cl)NS2(=O)=O (stereo not drawn) [Trichlormethiazide] | −0.03362 | 
30 | C=CC(N)CCC(=O)O (stereo not drawn) [Vigabatrin] | −0.8304 | 
31 | C=C1C[C@]23C[C@@]1(O)CC[C@H]2[C@@]12C=C[C@H](O)[C@@](C)(C(=O)O1)[C@H]2[C@@H]3C(=O)O [Gibberellic acid] | −0.3452 | 
32 | COc1c2ccoc2nc2c(OC)c(OCC(O)C(C)(C)O)ccc12 (stereo not drawn) [Evoxine] | 0.0116 | 
33 | O=C1CN(/N=C/c2ccc(-c3ccc([N+](=O)[O-])cc3)o2)C(O)=N1 [Dantrolene sodium salt] | 1.306 | 
34 | (S)-propranolol hydrochloride | 0.6803 | 
35 | CN(C)CCN(Cc1cccs1)c1ccccn1 [Methapyrilene hydrochloride] | 0.1344 | 
36 | O=c1c(O)c(-c2cc(O)c(O)c(O)c2)oc2cc(O)cc(O)c12 [Myricetin] | 0.713 | 
37 | CCOC(=O)C1=C(C)NC(C)=C(C(=O)OC)C1c1cccc(Cl)c1Cl (stereo not drawn) [Felodipine] | 0.006455 | 
38 | CC/C(=C(/CC)c1ccc(O)cc1)c1ccc(O)cc1 [Diethylstilbestrol] | 1.624 | 
